{"source": "patent US20140050669A1", "about": "“USE OF RADIOGRAPHIC CONTRAST AGENTS FOR DETECTING DENTAL CARIES” (Creighton University, priority 2011, published 2014)", "key": {"[1]": {"test": "comparison of contrast agents applied in turn to the same tooth cavity, radiographic analysis", "protocol": "A 9M solution of sodium iodide (an ionic contrast agent) and a 76% solution of iopamidol (a non-ionic contrast agent) were administered. Each compound was applied in turn under identical conditions to the same tooth cavity and the tooth was radiographically analyzed as discussed above. After application and testing of each compound, the contrast was washed out from the tooth, and the tooth was tested radiographically to ensure there was no contrast remaining.\nA barium sulfate solution comprising 1 gram of barium sulfate in 0.5 ml distilled water was administered. The compound was applied, and the tooth was analyzed and compared to other contrast agents and to the control treated tooth as discussed in Example 4. After application and testing of each compound, the contrast was washed out from the tooth and the tooth was tested radiographically to ensure there was no contrast remaining."}, "[2]": {"conditions": "barium sulfate 96% w/w, radiograph 15 seconds after application", "text": "The radiograph was taken 15 seconds after barium sulfate (96% w/w) was applied."}, "[3]": {"test": "x-ray contrast imaging of identified dental caries before and after topical intra-oral composition", "conditions": "9 M sodium iodide in distilled water", "protocol": "A radiographic contrast imaging analysis using x-ray imaging was performed, comparing the imaging of identified dental caries before and after administration of a topical intra-oral composition comprising sodium iodide and distilled water according to the methods of the current invention. Specifically, an x-ray image of a tooth with identified dental caries was performed, without administering the topical intra-oral composition. This image was used as a control for determining the ability of typical x-ray images to detect dental caries in a patient. Subsequently, the same tooth was administered a composition comprising sodium iodide and distilled water, with the composition having a sodium iodide concentration of 9 molar. After administration of the composition to the tooth, x-ray images were obtained 20 seconds after administration and 16 minutes after administration. Further, an x-ray image of the tooth was taken 14 days after administration of the composition to determine if the composition continued to reside in the dental carious lesion. The images obtained are found in FIG. 1."}, "[4]": {"test": "x-ray imaging of cavitated surface versus sound healthy surface", "conditions": "9 M sodium iodide solution, x-ray 2 minutes after administration", "protocol": "An experiment was performed to test the ability of the topical intra-oral compositions and methods to differentiate between cavitated surfaces (dental caries) and healthy, sound surfaces. Specifically, an x-ray image of a tooth with an identified cavitated surface on one side of the tooth and a sound surface on the other side was performed, without administering the topical intra-oral composition. This image was used as a control for determining the ability of the topical intra-oral compositions to selectively absorb into cavitated surfaces, rather than sound surfaces. Subsequently, the same tooth was administered a composition comprising sodium iodide and distilled water, with the composition having a sodium iodide concentration of 9 molar. After administration of the composition to the tooth, an x-ray image was obtained 2 minutes after administration. The results are illustrated in FIG. 2."}, "[5]": {"test": "x-ray imaging of cavitated lesion versus non-cavitated lesion", "conditions": "9 M sodium iodide solution, x-ray 3 minutes after administration", "protocol": "An experiment was performed to test the ability of the topical intra-oral compositions and methods to differentiate between cavitated surfaces (a cavity) requiring treatment and non-cavitated lesions not requiring treatment. Specifically, an x-ray image of a tooth with an identified cavitated surface on the right side of the tooth and a non-cavitated lesion on the other side was performed, without administering the topical intra-oral composition. This image was used as a control for determining the ability of the topical intra-oral compositions to selectively absorb into cavitated lesions, rather than non-cavitated lesions. Subsequently, the same tooth was administered a composition comprising sodium iodide and distilled water, with the composition having a sodium iodide concentration of 9 molar. After administration of the composition to the tooth, an x-ray image was obtained 3 minutes after administration. The results are illustrated in FIG. 3."}}, "data": [{"compound": "O=S(=O)([O-])[O-].[Ba+2]", "note": "[barium sulfate]", "values": [{"measurement": "radiographic contrast enhancement of tooth cavity", "setting": "[1]; 1 gram of barium sulfate in 0.5 ml distilled water", "result": "produced radiographic contrast enhancement revealing tooth cavitation"}, {"measurement": "radiographic image of shallow cavity", "setting": "[2]", "result": "image showing a shallow cavity"}]}, {"compound": "C[C@H](O)C(=O)Nc1c(I)c(C(=O)NC(CO)CO)c(I)c(C(=O)NC(CO)CO)c1I", "note": "[iopamidol]", "values": [{"measurement": "radiographic contrast enhancement of tooth cavity", "setting": "[1]; 76% solution of iopamidol", "result": "produced radiographic contrast enhancement revealing tooth cavitation"}]}, {"compound": "[I-].[Na+]", "note": "[sodium iodide]", "values": [{"measurement": "radiographic contrast enhancement of tooth cavity", "setting": "[1]; 9M solution of sodium iodide", "result": "produced radiographic contrast enhancement revealing tooth cavitation"}, {"measurement": "radiographic image of dental caries versus control image", "setting": "[3]; x-ray 20 seconds after administration", "result": "enhanced radiographic image of dental caries"}, {"measurement": "radiographic image of dental caries versus control image", "setting": "[3]; x-ray 16 minutes after administration", "result": "enhanced radiographic image of dental caries"}, {"measurement": "x-ray appearance of composition in the carious lesion", "setting": "[3]; x-ray 14 days after administration", "result": "altered x-ray appearance"}, {"measurement": "radiographic image of dental caries (cavitated surface)", "setting": "[4]; cavitated surface", "result": "enhanced radiographic image of dental caries"}, {"measurement": "effect on imaging of sound tooth surfaces", "setting": "[4]; sound surface", "result": "does not affect the imaging of sound tooth surfaces"}, {"measurement": "radiographic image of cavitated lesion (cavity)", "setting": "[5]; cavitated lesion", "result": "enhanced radiographic image of a cavitated lesion"}, {"measurement": "effect on imaging of non-cavitated lesions", "setting": "[5]; non-cavitated lesion", "result": "does not affect the imaging of non-cavitated lesions"}]}]}
